Assay results: patent US9206167B2, “Piperazine-substituted benzothiophenes for treatment of mental disorders” (Otsuka Pharmaceutical Co., Ltd., priority 2005, dated 2015)
Where a name gives a salt, the structure may show the parent alone.

Tests used:
[1] = target: Serotonin 5-HT2A receptor (Rattus norvegicus (Rat), UniProt P14842); test: Serotonin 5-HT2A receptor binding assay ([3H]-Ketanserin, rat frontal cortex membrane); settings: Ki from IC50 by Cheng-Prussoff formula
Procedure: 2) Serotonin 5-HT2A Receptor Binding Assay
The assay was performed according to the method by Leysen J E et al. (Leysen J E, Niemegeers C J E, Van Nueten J M and Laduron P M. [3H] Ketanserin (R 41 468), a selective 3H-ligand for serotonin 2 receptor binding sites. Mol. Pharmacol., 1982, 21: 301-314).
Wistar male rats were decapitated, the brain was retrieved immediately and frontal cortex was taken out. It was homogenized in 0.25 M sucrose of a volume 10 times of the weight of the tissue using a Teflon glass homogenizer, and centrifuged at 4° C., 1,000×g for 10 minutes. The obtained supernatant was transferred to another centrifuge tube and suspended in 0.25 M sucrose of a volume 5 times of the weight of the tissue and the precipitate was centrifuged in the above-described condition. The obtained supernatant was combined with the supernatant obtained above and adjusted to a volume 40 times of the weight of the tissue with 50 mM Tris-hydrochloric acid buffer (pH 7.4), and centrifuged at 4° C., 35,000×g for 10 minutes. The obtained precipitate was suspended again in the above-described buffer of a volume 40 times of the weight of the tissue and centrifuged in the above-described condition. The obtained precipitate was suspended in the above-described buffer of a volume 20 times of the weight of the tissue and preserved by freezing at −85° C. till it was used for binding assay as a membrane specimen.
The binding assay was performed using 40 μl of the membrane specimen, 20 μl of [^3H]-Ketanserin (final concentration 1 to 3 nM), 20 μl of a test drug and 50 mM Tris-hydrochloric acid buffer (pH 7.4) so that the total amount was 200 μl (final dimethylsulfoxide concentration 1%). The reaction was performed at 37° C. for 20 minutes and terminated by conducting suction filtration with a cell harvester on a glass fiber filter plate.
The filter plate made of glass fiber was washed with 50 mM Tris-hydrochloric acid buffer (pH 7.4), and after dried, a microplate liquid scintillation cocktail was added and the radioactivity was measured with a microplate scintillation counter. Radioactivity in the presence of 10 μM spiperone was assumed as nonspecific binding.
(§1) IC50 value was calculated from concentration-dependent reaction using a non-linear analysis program. Ki value was calculated from IC50 value using Cheng-Prussoff formula.

Dopamine D2 receptor = Dopamine D2 receptor (Rattus norvegicus (Rat), UniProt P61169); test: Dopamine D2 receptor binding assay ([3H]-raclopride, rat corpus striatum membrane); settings: Ki from IC50 by Cheng-Prussoff formula
Chain of Dopamine D2 receptor (P61169 whole entry): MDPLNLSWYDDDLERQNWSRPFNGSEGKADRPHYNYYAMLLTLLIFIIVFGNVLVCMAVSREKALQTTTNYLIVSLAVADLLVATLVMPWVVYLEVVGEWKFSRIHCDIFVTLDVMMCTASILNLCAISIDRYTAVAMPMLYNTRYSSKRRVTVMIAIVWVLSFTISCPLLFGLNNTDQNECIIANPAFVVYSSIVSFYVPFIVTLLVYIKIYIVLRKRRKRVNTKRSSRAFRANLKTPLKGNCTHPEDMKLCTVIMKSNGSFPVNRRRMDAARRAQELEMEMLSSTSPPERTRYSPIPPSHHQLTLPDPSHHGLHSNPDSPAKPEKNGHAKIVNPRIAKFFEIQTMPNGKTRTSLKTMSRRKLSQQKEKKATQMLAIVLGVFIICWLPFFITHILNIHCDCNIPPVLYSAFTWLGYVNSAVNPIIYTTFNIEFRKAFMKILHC
Procedure: Pharmacological Test 1 1) Dopamine D2 Receptor Binding Assay
Wistar male rats were decapitated, the brain was retrieved immediately and corpus striatum was taken out. It was homogenized in 50 mM tris(hydroxymethyl)aminomethane (Tris)-hydrochloric acid buffer (pH 7.4) of a volume 50 times of the weight of the tissue using a homogenizer with a high-speed rotating blade, and centrifuged at 4° C., 48,000×g for 10 minutes. The obtained precipitate was suspended again in the above-described buffer of a volume 50 times of the weight of the tissue and after incubated at 37° C. for 10 minutes, centrifuged in the above-described condition. The obtained precipitate was suspended in 50 mM (Tris)-hydrochloric acid buffer (containing 120 mM NaCl, 5 mM KCl, 2 mM CaCl2, 1 mM MgCl2, pH 7.4) of a volume 25 times of the weight of the tissue and preserved by freezing at −85° C. till it was used for binding assay as a membrane specimen.
The binding assay was performed using 40 μl of the membrane specimen, 20 μl of [^3H]-raclopride (final concentration 1 to 2 nM), 20 μl of a test drug and 50 mM Tris-hydrochloric acid buffer (containing 120 mM NaCl, 5 mM KCl, 2 mM CaCl2, 1 mM MgCl2, pH 7.4) so that the total amount was 200 μl (final dimethylsulfoxide concentration 1%). The reaction was performed at room temperature for 1 hour and terminated by conducting suction filtration with a cell harvester on a glass fiber filter plate. The filter plate made of glass fiber was washed with 50 mM Tris-hydrochloric acid buffer (pH 7.4), and after dried, a microplate liquid scintillation cocktail was added and the radioactivity was measured with a microplate scintillation counter. Radioactivity in the presence of 10 μM (+)-butaclamol hydrochloride was assumed as nonspecific binding.
as §1

Serotonin (5-HT) uptake = Serotonin (5-HT) uptake (Rattus norvegicus (Rat), UniProt P31652); test: Serotonin (5-HT) uptake inhibitory activity by rat brain synaptosome; format: biochemical; settings: test compound 300 nM, rat frontal cortex synaptosome; read-out: Serotonin uptake inhibitory ratio (%) (300 nM)
Chain of Serotonin (5-HT) uptake (P31652 whole entry): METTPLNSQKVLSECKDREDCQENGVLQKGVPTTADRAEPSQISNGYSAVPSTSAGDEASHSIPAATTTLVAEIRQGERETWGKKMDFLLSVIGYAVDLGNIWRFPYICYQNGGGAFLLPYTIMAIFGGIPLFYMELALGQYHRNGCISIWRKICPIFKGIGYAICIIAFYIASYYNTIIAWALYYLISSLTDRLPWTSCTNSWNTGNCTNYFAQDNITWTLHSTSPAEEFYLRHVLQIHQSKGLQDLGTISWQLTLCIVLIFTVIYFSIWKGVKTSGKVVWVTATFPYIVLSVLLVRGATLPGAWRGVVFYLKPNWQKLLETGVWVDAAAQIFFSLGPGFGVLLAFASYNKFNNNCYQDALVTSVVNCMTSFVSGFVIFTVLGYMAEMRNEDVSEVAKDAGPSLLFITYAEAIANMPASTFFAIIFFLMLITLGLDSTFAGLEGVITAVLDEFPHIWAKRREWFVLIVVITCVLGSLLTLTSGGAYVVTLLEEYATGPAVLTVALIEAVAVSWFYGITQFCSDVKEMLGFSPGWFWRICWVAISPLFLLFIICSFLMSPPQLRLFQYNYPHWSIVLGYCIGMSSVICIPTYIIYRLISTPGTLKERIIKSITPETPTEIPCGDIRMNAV
Procedure: Measurement of Serotonin (5-HT) Uptake Inhibitory Activity of a Test Compound by Rat Brain Synaptosome
Wistar male rats were decapitated, the brain was retrieved and frontal cortex was dissected out, and it was homogenized in 0.32 M sucrose solution of a weight 20 times of the weight of the tissue using a Potter type homogenizer. The homogenate was centrifuged at 4° C., 1,000×g for 10 minutes, the obtained supernatant was further centrifuged at 4° C., 20,000×g for 20 minutes, and the pellet was suspended in an incubation buffer (20 mM Hepes buffer (pH 7.4) containing 10 mM glucose, 145 mM sodium chloride, 4.5 mM potassium Chloride, 1.2 mM magnesium chloride, 1.5 mM calcium chloride), which was used as crude synaptosome fraction.
5-HT uptake reaction was performed in a volume of 200 μl using a 96-well round bottom plate and pargyline (final concentration 10 μM) and sodium ascorbate (final concentration 0.2 mg/ml) were contained in the incubation buffer upon reaction and used.
Incubation buffer (total counting), non-labeled 5-HT (final concentration 10 μM, non-specific counting) and the diluted test compound (final concentration 300 nM) were added to each well. One-tenth quantity of the final volume of the synaptosome fraction was added and after preincubated at 37° C. for 10 minutes, tritium labeled 5-HT solution (final concentration 8 nM) was added and uptake reaction was started at 37° C. The uptake time was 10 minutes and the reaction was terminated by vacuum filtration through a 96-well fiber glass filter paper plate, and after the filter paper was washed with cold normal saline, it was dried enough and Microscint0 (Perkin-Elmer) was added to the filter and remaining radioactivity on the filter was measured.

Chain of Serotonin 5-HT2A receptor (P14842 whole entry): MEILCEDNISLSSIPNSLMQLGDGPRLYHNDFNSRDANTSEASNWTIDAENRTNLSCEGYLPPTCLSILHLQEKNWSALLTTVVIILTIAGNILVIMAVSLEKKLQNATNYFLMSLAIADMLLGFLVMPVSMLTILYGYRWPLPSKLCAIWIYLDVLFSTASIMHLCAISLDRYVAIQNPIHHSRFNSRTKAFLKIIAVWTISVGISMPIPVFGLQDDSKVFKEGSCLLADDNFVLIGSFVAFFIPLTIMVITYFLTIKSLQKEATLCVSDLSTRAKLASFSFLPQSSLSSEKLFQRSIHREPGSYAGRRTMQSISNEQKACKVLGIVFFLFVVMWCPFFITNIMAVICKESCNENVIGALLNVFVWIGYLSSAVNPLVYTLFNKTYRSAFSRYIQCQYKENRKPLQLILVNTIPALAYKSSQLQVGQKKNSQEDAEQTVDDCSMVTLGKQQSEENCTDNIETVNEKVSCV

| Compound | Ki [1] [nM] | Ki (Dopamine D2 receptor) [nM] | inhibition at 0.3 µM (Serotonin (5-HT) uptake) [%] | Ki ([1]; hydrochloride) [nM] |
| --- | --- | --- | --- | --- |
| CC(=O)Nc1ccc(OCCCN2CCN(c3cccc4sccc34)CC2)c2c1NC(=O)CC2 [Example 155] | 3 | 2.3 | – | – |
| CN1CCc2ccc(OCCCCN3CCN(c4cccc5sccc45)CC3)cc2C1=O [Example 32, 7-[4-(4-benzo[b]thiophen-4-yl-piperazin-1-yl)butoxy]-2-methyl-3,4-dihydro-2H-isoquinolin-1-one hydrochloride] | – | 1.5 | – | – |
| O=C1CCc2cc(CO)c(OCCCN3CCN(c4cccc5sccc45)CC3)cc2N1 [Example 139] | – | 0.2 | – | – |
| O=c1[nH]ccc2cc(OCCCN3CCN(c4cccc5sccc45)CC3)ccc12 [Example 40, 6-[3-(4-benzo[b]thiophen-4-yl-piperazin-1-yl)propoxy]-2H-isoquinolin-1-one] | 5.1 | 4.8 | 91.6 | – |
| Cc1cc(=O)[nH]c2cc(OCCCCN3CCN(c4cccc5sccc45)CC3)ccc12 [Example 4, 7-[4-(4-benzo[b]thiophen-4-yl-piperazin-1-yl)butoxy]-4-methyl-1H-quinolin-2-one] | 4.9 | 0.5 | 91 | – |
| Cc1cc(=O)[nH]c2cc(OCCCN3CCN(c4cccc5sccc45)CC3)ccc12 [Example 3, 7-[3-(4-benzo[b]thiophen-4-yl-piperazin-1-yl)propoxy]-4-methyl-1H-quinolin-2-one] | 2.3 | 0.5 | 84.8 | – |
| O=c1c2cc(O)ccc2ccn1CCCCN1CCN(c2cccc3sccc23)CC1 [Example 39, 2-[4-(4-benzo[b]thiophen-4-yl-piperazin-1-yl)butyl]-7-hydroxy-2H-isoquinolin-1-one hydrobromide] | – | 1.2 | – | – |
| O=c1ccc2cc(OCCCN3CCN(c4cccc5sccc45)CC3)cc(F)c2[nH]1 [Example 118] | 3.4 | 3.5 | – | – |
| O=c1c2ccccc2ccn1CCCCN1CCN(c2cccc3sccc23)CC1 [Example 34, 2-[4-(4-benzo[b]thiophen-4-yl-piperazin-1-yl)butyl]-2H-isoquinolin-1-one] | 1.5 | 1.2 | 94.2 | – |
| O=C1CCc2cccc(OCCCCN3CCN(c4cccc5sccc45)CC3)c2N1 [Example 186] | 8.8 | 2.3 | – | – |
| Cc1cc(=O)[nH]c2ccc(OCCCCN3CCN(c4cccc5sccc45)CC3)cc12 [Example 185] | 5 | 2.7 | – | – |
| Cn1ccc2ccc(OCCCN3CCN(c4cccc5sccc45)CC3)cc2c1=O [Example 36, 7-[3-(4-benzo[b]thiophen-4-yl-piperazin-1-yl)propoxy]-2-methyl-2H-isoquinolin-1-one hydrochloride] | 2.1 | – | – | – |
| O=c1ccc2cc(OCCCCN3CCN(c4cccc5sccc45)CC3)cc(F)c2[nH]1 [Example 184] | 4.3 | 2.6 | – | – |
| O=C1CCc2c(cccc2OCCCN2CCN(c3cccc4sccc34)CC2)N1 [Example 122] | 2.9 | 3.3 | – | – |
| O=C1CCc2ccc(OC/C=C\CN3CCN(c4cccc5sccc45)CC3)cc2N1 [Example 13, 7-[4-(4-benzo[b]thiophen-4-yl-piperazin-1-yl)-(Z)-2-butenyloxy]-3,4-dihydro-1H-quinolin-2-one] | – | 2.4 | 77 | – |
| Cc1cccc2cc(OCCCN3CCN(c4cccc5sccc45)CC3)c(=O)[nH]c12 [Example 117] | – | 4.7 | – | – |
| O=c1[nH]ccc2ccc(OCCCN3CCN(c4cccc5sccc45)CC3)cc12 [Example 35, 7-[3-(4-benzo[b]thiophen-4-yl-piperazin-1-yl)propoxy]-2H-isoquinolin-1-one] | – | 1.6 | – | – |
| O=c1ccc2cccc(OCCCCN3CCN(c4cccc5sccc45)CC3)c2[nH]1 [Example 188] | 6.3 | 1.6 | – | – |
| O=C1CCc2c(O)ccc(OCCCN3CCN(c4cccc5sccc45)CC3)c2N1 [Example 190] | – | 0.8 | – | – |
| COc1ccc2ccn(CCCCN3CCN(c4cccc5sccc45)CC3)c(=O)c2c1 [Example 38, 2-[4-(4-benzo[b]thiophen-4-yl-piperazin-1-yl)butyl]-7-methoxy-2H-isoquinolin-1-one hydrochloride] | 7.3 | – | – | – |
| O=C1CCc2ccc(OCCCCN3CCN(c4cccc5sccc45)CC3)cc2N1 [Example 11, 7-[4-(4-benzo[b]thiophen-4-yl-piperazin-1-yl)butoxy]-3,4-dihydro-1H-quinolin-2-one] | 5.7 | – | – | – |
| O=C1NCCc2ccc(OCCCN3CCN(c4cccc5sccc45)CC3)cc21 [Example 28, 7-[3-(4-benzo[b]thiophen-4-yl-piperazin-1-yl)propoxy]-3,4-dihydro-2H-isoquinolin-1-one] | – | 1.2 | – | – |
| O=C1CCc2cc(OCCCN3CCN(c4cccc5sccc45)CC3)cc(F)c2N1 [Example 116] | 4.2 | 4.5 | – | – |
| O=C1NCCc2cc(OCCCN3CCN(c4cccc5sccc45)CC3)ccc21 [Example 25, 6-[3-(4-benzo[b]thiophen-4-yl-piperazin-1-yl)propoxy]-3,4-dihydro-2H-isoquinolin-1-one] | 4.6 | – | 91.9 | – |
| O=C1CCc2ccc(OCCCCN3CCN(c4cccc5sccc45)CC3)cc2N1 [Example 12, 7-[4-(4-benzo[b]thiophen-4-yl-piperazin-1-yl)butoxy]-3,4-dihydro-1H-quinolin-2-one hydrochloride] | – | – | – | 2.1 |
| O=C1CCc2ccccc2N1CCCCCN1CCN(c2cccc3sccc23)CC1 [Example 22, 1-[5-(4-benzo[b]thiophen-4-yl-piperazin-1-yl)pentyl]-3,4-dihydro-1H-quinolin-2-one hydrochloride] | – | 4 | – | – |
| Cc1cc2ccc(OCCCCN3CCN(c4cccc5sccc45)CC3)cc2[nH]c1=O [Example 6, 7-[4-(4-benzo[b]thiophen-4-yl-piperazin-1-yl)butoxy]-3-methyl-1H-quinolin-2-one] | – | 0.8 | 91.3 | – |
| CCN1CCc2ccc(OCCCN3CCN(c4cccc5sccc45)CC3)cc2C1=O [Example 31, 7-[3-(4-benzo[b]thiophen-4-yl-piperazin-1-yl)propoxy]-2-ethyl-3,4-dihydro-2H-isoquinolin-1-one dihydrochloride] | – | 1.4 | – | – |
| O=c1[nH]c2ccccc2cc1OCCN1CCN(c2cccc3sccc23)CC1 [Example 2, 3-[2-(4-benzo[b]thiophen-4-yl-piperazin-1-yl)ethoxy]-1H-quinolin-2-one] | 1.5 | – | 78.8 | – |
